Results published in BindingDB's records for patent US20240018157 (Schrödinger, 2024).

Tests used:
[1] = target: T1, Mucosa-associated lymphoid tissue lymphoma translocation protein 1 (Homo sapiens, UniProt Q9UDY8); assay: MALT1 Protease Assay 1
T1 sequence (Q9UDY8 whole entry): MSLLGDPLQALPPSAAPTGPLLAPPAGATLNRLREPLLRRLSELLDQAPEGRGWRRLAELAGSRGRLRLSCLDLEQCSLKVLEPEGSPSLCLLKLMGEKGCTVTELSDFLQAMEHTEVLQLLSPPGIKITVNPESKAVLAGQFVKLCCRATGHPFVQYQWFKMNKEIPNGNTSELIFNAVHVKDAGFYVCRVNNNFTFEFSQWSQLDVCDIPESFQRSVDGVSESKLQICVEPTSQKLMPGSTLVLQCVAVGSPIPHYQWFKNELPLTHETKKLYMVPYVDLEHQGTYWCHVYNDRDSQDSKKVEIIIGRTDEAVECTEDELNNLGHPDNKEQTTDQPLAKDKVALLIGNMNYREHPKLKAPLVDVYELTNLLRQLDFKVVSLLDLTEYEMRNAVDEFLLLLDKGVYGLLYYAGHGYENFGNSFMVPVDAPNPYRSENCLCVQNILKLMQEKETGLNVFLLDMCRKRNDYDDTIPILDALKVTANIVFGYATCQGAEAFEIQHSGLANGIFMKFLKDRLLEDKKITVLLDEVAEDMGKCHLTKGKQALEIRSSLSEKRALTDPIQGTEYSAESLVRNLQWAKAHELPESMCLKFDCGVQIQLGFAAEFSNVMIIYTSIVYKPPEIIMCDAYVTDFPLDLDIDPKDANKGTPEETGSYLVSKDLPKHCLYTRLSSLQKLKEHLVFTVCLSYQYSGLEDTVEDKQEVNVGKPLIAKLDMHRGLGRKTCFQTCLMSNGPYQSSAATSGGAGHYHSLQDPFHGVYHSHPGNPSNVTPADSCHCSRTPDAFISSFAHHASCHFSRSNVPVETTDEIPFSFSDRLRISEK
Method: The final assay buffer includes 2 nM of MALT1 full-length protein, 50 μM Ac-LRSR-AMC substrate, 50 mM Tris pH 7.5, 600 mM Sodium Citrate, 1 mM DTT, 1 mM EDTA, and 0.05% BSA in 384-well plate format using black microtiter square well plates (Optiplate 384-F, Perkin Elmer). Test compounds were dissolved in 100% DMSO at stock of 10 mM, with final DMSO concentration 0.1%. Test compounds were pre-incubated with MALT1 protein for 2 h at room temperature. Substrate was added after the pre-incubation and fluorescence signal was measured using Envision at excitation 355 nm and emission 460 nm after 8 hr incubation at RT. Increase in the assay signal was linear over this period and proportional with increase in the enzyme content.

[2] = target: T1, Mucosa-associated lymphoid tissue lymphoma translocation protein 1; assay: MALT1 Protease Assay 2
Method: Test compounds were dissolved in 100% DMSO at stock of 10 mM, with final DMSO concentration 0.1%. Test compounds were pre-incubated with MALT1 protein for 2 h at room temperature.

IC50 [1] [nM] | IC50 [2] [nM] | Compound
< 10 | – | O=C(Nc1cnc(-n2nccn2)c(Cl)c1)N1CC(C(F)(F)F)c2c1cnc1cc(Cl)nn21 (stereo not given) [US20240018157, Example 2]
10 to 100 | – | C[C@]1(C2CC2)CN(C(=O)Nc2cnc(-n3nccn3)c(Cl)c2)c2cnc3cc(Cl)nn3c21 [US20240018157, Example 3]
< 10 | – | C[C@@H]1CCN(C(=O)Nc2cnc(-n3nccn3)c(Cl)c2)c2cnc3cc(Cl)nn3c21 [US20240018157, Example 5]
10 to 100 | – | C[C@H]1CCN(C(=O)Nc2cnc(-n3nccn3)c(Cl)c2)c2cnc3cc(Cl)nn3c21 [US20240018157, Example 6]
< 10 | – | CC1(C)CCN(C(=O)Nc2cnc(-n3nccn3)c(Cl)c2)c2cnc3cc(Cl)nn3c21 [US20240018157, Example 7]
< 10 | – | Cc1cc2ncc3c(n2n1)C(C(F)(F)F)CCN3C(=O)Nc1cnc(-n2nccn2)c(Cl)c1 (stereo not given) [US20240018157, Example 10]
10 to 100 | – | CC1(C)c2c(cnc3cc(Cl)nn23)N(C(=O)Nc2cnc(-n3nccn3)c(Cl)c2)C[C@@H]1O [US20240018157, Example 11]
< 10 | – | CC1(C)c2c(cnc3cc(Cl)nn23)N(C(=O)Nc2cnc(-n3nccn3)c(Cl)c2)C[C@H]1O [US20240018157, Example 12]
10 to 100 | – | CO[C@H]1CN(C(=O)Nc2cnc(-n3nccn3)c(Cl)c2)c2cnc3cc(Cl)nn3c2C1(C)C [US20240018157, Example 13]
100 to 1000 | – | CO[C@@H]1CN(C(=O)Nc2cnc(-n3nccn3)c(Cl)c2)c2cnc3cc(Cl)nn3c2C1(C)C [US20240018157, Example 14]
10 to 100 | – | C[C@]1(C(F)(F)F)CN(C(=O)Nc2cnc(-n3nccn3)c(Cl)c2)c2cnc3cc(Cl)nn3c21 [US20240018157, Example 15]
< 10 | – | C[C@@]1(C(F)(F)F)CN(C(=O)Nc2cnc(-n3nccn3)c(Cl)c2)c2cnc3cc(Cl)nn3c21 [US20240018157, Example 16]
< 10 | – | COc1ccc(NC(=O)N2C[C@@](C)(C(F)(F)F)c3c2cnc2cc(Cl)nn32)cc1Cl [US20240018157, Example 19]
< 10 | – | Cc1cc(NC(=O)N2C[C@@](C)(C(F)(F)F)c3c2cnc2cc(Cl)nn32)cnc1-n1nccn1 [US20240018157, Example 21]
< 10 | – | Cn1ccc(-c2ncc(NC(=O)N3C[C@@](C)(C(F)(F)F)c4c3cnc3cc(Cl)nn43)cc2Cl)n1 [US20240018157, Example 25]
< 10 | – | C[C@@]1(C(F)(F)F)CN(C(=O)Nc2cnc(-n3cccn3)c(Cl)c2)c2cnc3cc(Cl)nn3c21 [US20240018157, Example 26]
10 to 100 | – | Cc1cc2ncc3c(n2n1)[C@@](C)(C(F)(F)F)CN3C(=O)Nc1cnc(-n2nccn2)c(Cl)c1 [US20240018157, Example 31]
10 to 100 | – | C[C@@]1(C(F)(F)F)CN(C(=O)Nc2cnc([C@@H]3CCCO3)c(Cl)c2)c2cnc3cc(Cl)nn3c21 [US20240018157, Example 33]
< 10 | – | C[C@@]1(C(F)(F)F)CN(C(=O)Nc2cnc([C@H]3CCCO3)c(Cl)c2)c2cnc3cc(Cl)nn3c21 [US20240018157, Example 34]
10 to 100 | – | C[C@]1(C(F)(F)F)CN(C(=O)Nc2cnc(-n3nccn3)c(Cl)c2)c2cnc3cc(F)nn3c21 [US20240018157, Example 38]
< 10 | – | C[C@@]1(C(F)(F)F)CN(C(=O)Nc2cnc(-n3nccn3)c(C(F)(F)F)c2)c2cnc3cc(Cl)nn3c21 [US20240018157, Example 40]
< 10 | – | C[C@@]1(C(F)(F)F)CN(C(=O)Nc2cnc(-n3nccn3)c(C#N)c2)c2cnc3cc(Cl)nn3c21 [US20240018157, Example 41]
< 10 | – | C[C@@]1(C(F)(F)F)CN(C(=O)Nc2cnc(-n3ccnn3)c(C(F)(F)F)c2)c2cnc3cc(Cl)nn3c21 [US20240018157, Example 44]
10 to 100 | – | COCc1ncc(NC(=O)N2C[C@@](C)(C(F)(F)F)c3c2cnc2cc(Cl)nn32)cc1Cl [US20240018157, Example 45]
10 to 100 | – | C[C@@]1(C(F)(F)F)CN(C(=O)Nc2cnc([C@@H]3CCCCO3)c(Cl)c2)c2cnc3cc(Cl)nn3c21 [US20240018157, Example 46]

IC50 [1] [nM] | IC50 [2] [nM] | Compound
10 to 100 | – | C[C@@]1(C(F)(F)F)CN(C(=O)Nc2cnc([C@H]3CCCCO3)c(Cl)c2)c2cnc3cc(Cl)nn3c21 [US20240018157, Example 47]
< 10 | – | C[C@@]1(C(F)(F)F)CN(C(=O)Nc2cnc(-n3cc(O)cn3)c(Cl)c2)c2cnc3cc(Cl)nn3c21 [US20240018157, Example 48]
– | 10 to 100 | C[C@H](O)c1cnnn1-c1ncc(NC(=O)N2C[C@@](C)(C(F)(F)F)c3c2cnc2cc(Cl)nn32)cc1C(F)F [US20240018157, Example 184]
– | > 1000 | CNc1cc(NC(=O)N2C[C@@](C)(C(F)(F)F)c3c2cnc2cc(Cl)nn32)ncc1-n1nccn1 [US20240018157, Example 186]
– | > 1000 | CNc1cc(NC(=O)N2C[C@@](C)(C(F)(F)F)c3c2cnc2cc(Cl)nn32)cnc1-n1ccnn1 [US20240018157, Example 187]
– | 100 to 1000 | C[C@]1(C(F)(F)F)CN(C(=O)Nc2cnnc(C(F)F)c2)c2cnc3cc(C#N)nn3c21 [US20240018157, Example 189]
– | > 1000 | C[C@@]1(C(F)(F)F)CN(C(=O)Nc2cnnc(C(F)F)c2)c2cnc3cc(C#N)nn3c21 [US20240018157, Example 190]
– | < 10 | CC(O)c1cnn(-c2ncc(NC(=O)N3C[C@@](C)(C(F)(F)F)c4c3cnc3cc(F)nn43)cc2C(F)F)n1 (stereo not given in full) [US20240018157, Example 191]
– | > 1000 | CNc1nc(NC(=O)N2C[C@@](C)(C(F)(F)F)c3c2cnc2cc(Cl)nn32)ccc1-n1nccn1 [US20240018157, Example 192]
– | > 1000 | CCc1cc2ncc3c(n2n1)[C@@](C)(C(F)(F)F)CN3C(=O)Nc1cnnc(C(F)F)c1 [US20240018157, Example 194]
– | 10 to 100 | CCc1cc2ncc3c(n2n1)[C@](C)(C(F)(F)F)CN3C(=O)Nc1cnnc(C(F)F)c1 [US20240018157, Example 195]
– | > 1000 | C[C@]1(C(F)(F)F)CN(C(=O)Nc2cnnc(C(F)F)c2)c2cnc3cc(CC(F)(F)F)nn3c21 [US20240018157, Example 196]
– | > 1000 | C[C@@]1(C(F)(F)F)CN(C(=O)Nc2cnnc(C(F)F)c2)c2cnc3cc(CC(F)(F)F)nn3c21 [US20240018157, Example 197]
– | > 1000 | C[C@]1(C(F)(F)F)CN(C(=O)Nc2cnnc(C(F)F)c2)c2cnc3cc(OC(F)F)nn3c21 [US20240018157, Example 199]
– | > 1000 | C[C@@]1(C(F)(F)F)CN(C(=O)Nc2cnnc(C(F)F)c2)c2cnc3cc(OC(F)F)nn3c21 [US20240018157, Example 200]
– | < 10 | O=C(Nc1cnc(-n2nccn2)c(Cl)c1)N1CC(O)(C(F)(F)F)c2c1cnc1cc(Cl)nn21 (stereo not given) [US20240018157, Example 201]
– | 10 to 100 | C[C@]1(C(F)F)CN(C(=O)Nc2cnc(OC(F)F)c(Cl)c2)c2cnc3cc(Cl)nn3c21 [US20240018157, Example 204]
– | < 10 | C[C@@]1(C(F)F)CN(C(=O)Nc2cnc(OC(F)F)c(Cl)c2)c2cnc3cc(Cl)nn3c21 [US20240018157, Example 205]
– | > 1000 | Cc1cn2ncc3c(c2n1)C(C)(C)CN3C(=O)Nc1cnc(C(=O)N(C)C)c(Cl)c1 [US20240018157, Example 206]
– | > 1000 | COC1CN(C(=O)c2ncc(NC(=O)N3CC(C)(C)c4c3cnn3cc(C)nc43)cc2Cl)C1 [US20240018157, Example 207]
– | > 1000 | Cc1cn2ncc3c(c2n1)C(C)(C)CN3C(=O)Nc1cnc(C(=O)N2CC(O)C2)c(Cl)c1 [US20240018157, Example 208]
– | > 1000 | C[C@@]1(C(F)(F)F)CN(C(=O)Nc2cnc(C3COC3)c(Cl)c2)c2cnc3cc(Cl)nn3c21 [US20240018157, Example 209]
– | > 1000 | Cn1cc([C@]2(C(F)(F)F)CN(C(=O)Nc3cnnc(C(F)F)c3)c3cnc4cc(Cl)nn4c32)cn1 [US20240018157, Example 210]
– | 10 to 100 | Cn1cc([C@@]2(C(F)(F)F)CN(C(=O)Nc3cnnc(C(F)F)c3)c3cnc4cc(Cl)nn4c32)cn1 [US20240018157, Example 211]

Compound | IC50 [1] [nM] | IC50 [2] [nM]
C[C@@]1(C(F)(F)F)CN(C(=O)Nc2cc(Cl)c(C(=O)O)c(O[C@H]3CCNC3)n2)c2cnc3cc(Cl)nn3c21 [US20240018157, Example 185] | – | > 1000
